Source: patent US20110269699A1, “CANCER THERAPY” (priority 2008, published 2011)

Tests used:
Assay type in all cases: cell-based, mouse
[1] = system: 226Eμ-myc/Bcl-2 lymphomas; assay: Cell cycle analysis of Eμ-myc/Bcl-2 cells treated with HDACi; settings: 226/Bcl-2
Protocol: (§1) Next, the cell cycle profiles of Eμ-myc/Bcl-2 lymphomas treated with oxamflatin and romidepsin over 3 days were assessed.
(§2) […] Viability of cells as measured by trypan blue exclusion assay, propidium iodide uptake, Annexin V staining, cell cycle analysis, or tetramethylrhodamine ethyl ester staining were done as described (Lindemann et al., Proc. Nat. Acad. Sci. USA 104:8071-8078, 2007).

[2] = system: 4242Eμ-myc/Bcl-2 lymphomas; assay: as above; settings: 4242/Bcl-2
Protocol: as §1, §2

[3] = system: Eμ-myc lymphomas; assay: In vitro cell death analysis (propidium iodide staining, loss of MOMP)
Protocol: (§3) Three different primary Eμ-myc lymphomas overexpressing Bcl-2 and control vector-transduced Eμ-myc cells were tested for sensitivity to the histone deacetylase inhibitors (HDACi) oxamflatin and romidepsin.
(§4) The primary function of prosurvival Bcl-2 proteins is to inhibit the activity of Bak and Bax proteins and thereby protect the mitochondrial membrane from damage (Cory et al., Nat. Rev. Cancer 2:647-656, 2002). To determine if the induction of apoptosis mediated by romidepsin in 4242Eμ-myc/Bcl-2 and 229Eμ-myc/Bcl-2 lymphomas was via perturbation of the mitochondrial membrane or through some other mechanism, HDACi-induced mitochondrial outer membrane permeabilization (MOMP) was quantitated by staining with tetramethylrhodamine ethyl ester (Molecular Probes).
as §2

[4] = system: Eμ-myc/Bcl-2 lymphomas; assay: as above
Protocol: as §3, §4, §2

[5] = system: 4242Eμ-myc lymphomas; assay: In vitro cell death analysis (parental control of the Bcl-XL experiment)
Protocol: (§5) To determine if increased expression of Bcl-XL could confer resistance to romidepsin, 4242Eμ-myc/Bcl-XL lymphomas were produced and tested for sensitivity to HDACi.
Eμ-myc lymphoma cells (5×10^5/mL) were incubated in the presence of the indicated compounds for 20 h in 1 mL cell culture medium in 24-well plates (Greiner Bio-One). Viability of cells as measured by trypan blue exclusion assay, propidium iodide uptake, Annexin V staining, cell cycle analysis, or tetramethylrhodamine ethyl ester staining were done as described (Lindemann et al., Proc. Nat. Acad. Sci. USA 104:8071-8078, 2007).

[6] = system: 4242Eμ-myc/Bcl-XL lymphomas; assay: In vitro cell death analysis of Bcl-XL overexpressing lymphomas
Source text: as §5, §2

[7] = system: acetylated histones H3 and H4; assay: Western blot analysis of histone acetylation status; settings: 4242Eμ-myc lymphomas; 3.0 nmol/L romidepsin, 0.1 mmol/L oxamflatin; 24-h time course
Protocol: Eμ-myc lymphoma cells were lysed in lysis buffer [0.15 mol/L NaCl, 10 mmol/L Tris-HCl (pH 7.4), 5 μmol/L EDTA, 1% Triton X-100] supplemented with protease inhibitors (leupeptin, pepstatin, and phenylmethylsulfonyl fluoride; Sigma-Aldrich) as described previously (Lindemann et al., Proc. Nat. Acad. Sci. USA 104:8071-8078, 2007). Proteins (30-50 μg) were separated on 10% or 15% SDS polyacrylamide gels electroblotted onto Immobilon-P […] membranes (Millipore). Membranes were incubated with the following antibodies: anti-mouse Bcl-2 (BD PharMingen), anti-mouse Bcl-XL (BD PharMingen), anti-mouse Bcl-w (Chemicon Australia), anti-mouse Mcl-1 (Rockland), anti-mouse A1 (Sapphire Biosciences), anti-Flag tag (Sigma-Aldrich), anti-acetylated histone H3 and antiacetylated histone H4 (Upstate Biosystems), anti-β actin (Sigma-Aldrich), and anti-tubulin (Sigma-Aldrich) overnight at 4° C. followed by subsequent incubation with horseradish peroxidase-conjugated secondary antibodies (DAKO) Immunoreactive bands were visualized by enhanced chemiluminescence (Amersham).

[8] = increasing concentrations over 24 h

In the case of Oxamflatin, the “% G1” value ([1]; 24 hr) is reported as 50.0%, the “% G2/M” value ([1]; 24 hr) is reported as 28.8% and the “% S phase” value ([1]; 24 hr) is reported as 14.4%. For the same substance, the “% subG1” value ([1]; 24 hr) was 2.7%, the “% G1” value ([1]; 48 hr) was 62.6% and the “% G2/M” value ([1]; 48 hr) was 21.4%. For the same substance, the “% S phase” value ([1]; 48 hr) was 10.8%, the “% subG1” value ([1]; 48 hr) was 2.6% and the “% G1” value ([1]; 72 hr) was 78.2%. For the same substance, the “% G2/M” value ([1]; 72 hr) was 12.0%, the “% S phase” value ([1]; 72 hr) was 2.5% and the “% subG1” value ([1]; 72 hr) was 6.5%. The “% G1” value ([2]; 24 hr) was 59.4%, the “% G2/M” value ([2]; 24 hr) was 18.0% and the “% S phase” value ([2]; 24 hr) was 8.2%. For the same substance, the “% subG1” value ([2]; 24 hr) was 8.4%, the “% G1” value ([2]; 48 hr) was 62.3% and the “% G2/M” value ([2]; 48 hr) was 15.3%. For the same substance, the “% S phase” value ([2]; 48 hr) was 8.4%, the “% subG1” value ([2]; 48 hr) was 5.9% and the “% G1” value ([2]; 72 hr) was 66.7%. The “% G2/M” value ([2]; 72 hr) was 15.8%, the “% S phase” value ([2]; 72 hr) was 9.7% and the “% subG1” value ([2]; 72 hr) was 4.6%. The “cell killing (outer cell membrane damage, loss of mitochondrial membrane potential)” value ([3]; 24-h dose-response assay) was “could effectively kill”, the “concentration of HDACi required to kill ˜70% of Eμ-myc lymphomas following 24-h treatment” value ([3]; 24-h treatment) was 0.1 µmol/L and the “cell killing in time course” value ([4]; 0.1 μmol/L, 72 h of continuous exposure) was “conferred resistance to oxamflatin”. The “cell killing (outer cell membrane damage, loss of mitochondrial membrane potential)” value ([4]; 24-h dose-response assay, Bcl-2 overexpressing) was “but not Eμ-myc/Bcl-2 lymphomas”, the “plasma membrane integrity and mitochondrial function” value [5, 8] was “dose-dependent loss of plasma membrane integrity and mitochondrial function” and the “cell cycle analysis: DNA fragmentation” value ([5]; increasing doses) was “DNA fragmentation occurred”. The “cell killing in time course” value ([5]; parental Eμ-myc lymphomas, within the first 24 h, 3 nmol/L romidepsin or 0.1 μmol/L oxamflatin) was “effectively killed”, the “plasma membrane integrity and mitochondrial function” value [6, 8] was “unaffected” and the cell cycle analysis ([6]; increasing doses) was “arrested in the G1 phase”. The “acetylation of histones H3 and H4” value [7] was “induced equivalent acetylation of histones H3 and H4”.
